The target in assay [1] is T1, HEP4 (Homo sapiens, UniProt P35408).
T1 construct: expressed in transfected cells; membrane fraction
As to the kind of experiment: Radioligand binding, EP4 receptor. The conditions noted are these: competition vs [3H]PGE2 5 nM, HEK-293 cell membranes. As to the method: (§1) HEK-293 cells stably expressing the human or feline FP receptor, or EP1, EP2, or EP4 receptors were washed with TME buffer, scraped from the bottom of the flasks, and homogenized for 30 sec using a Brinkman PT 10/35 polytron. TME buffer was added to achieve a final 40 ml volume in the centrifuge tubes (the composition of TME is 100 mM TRIS base, 20 mM MgCl2, […]; 10N HCl is added to achieve a pH of 7.4).
(§2) The cell homogenate was centrifuged at 19000 r.p.m. for 20 min at 4° C. using a Beckman Ti-60 rotor. The resultant pellet was resuspended in TME buffer to give a final 1 mg/ml protein concentration, as determined by Biorad assay. Radioligand binding competition assays vs. [^3H-]17-phenyl PGF2α (5 nM) were performed in a 100 μl volume for 60 min. Binding reactions were started by adding plasma membrane fraction. The reaction was terminated by the addition of 4 ml ice-cold TRIS-HCl buffer and rapid filtration through glass fiber GF/B filters using a Brandel cell harvester. The filters were washed 3 times with ice-cold buffer and oven dried for one hour. Non-specific binding was determined with 10 uM unlabeled 17-phenyl PGF2α.
[^3H-] PGE2 (5 nM; specific activity 180 Ci mmol) was used as the radioligand for EP receptors. Binding studies employing EP1, EP2, EP3, EP4 were performed in duplicate in at least three separate experiments. A 200 μl assay volume was used. Incubations were for 60 min at 25° C. and were terminated by the addition of 4 ml of ice-cold 50 mM TRIS-HCl, followed by rapid filtration through Whatman GF/B filters and three additional 4 ml washes in a cell harvester (Brandel). Non-specific binding determined with 10^−5M of unlabeled PGE2.

Assay [2] deals with T2, hEP4/Gqs5 (Homo sapiens, UniProt P35408).
T2 construct: expressed in transfected cells
Nature of the assay: FLIPR calcium signal, hEP4/Gqs5. The format is cell-based. The conditions noted are these: HEK-293(EBNA) cells, read-out: Functional EC50 (nM) HEP4. As to the method: (§3) HEK-293(EBNA) cells, stably expressing one type or subtype of recombinant human prostaglandin receptors (prostaglandin receptors expressed: hDP/Gqs5; hEP1; hEP2/Gqs5; hEP3A/Gqi5; hEP4/Gqs5; hFP; hIP; hTP), were cultured in 100 mm culture dishes in high-glucose DMEM medium containing 10% fetal bovine serum, 2 mM 1-glutamine, 250 μg/ml geneticin (G418) and 200 μg/ml hygromycin B as selection markers, and 100 units/ml penicillin G, 100 μg/ml streptomycin and 0.25 μg/ml amphotericin B.
(§4) Cells were seeded at a density of 5×10^4 cells per well in Biocoat® Poly-D-lysine-coated black-wall, clear-bottom 96-well plates (Becton-Dickinson) and allowed to attach overnight in an incubator at 37° C. Cells were then washed two times with HBSS-HEPES buffer (Hanks Balanced Salt Solution without bicarbonate and phenol red, 20 mM HEPES, pH 7.4) using a Denley Cellwash plate washer (Labsystems). After 45 minutes of dye-loading in the dark, using the calcium-sensitive dye Fluo-4 AM at a final concentration of 2 μM, plates were washed four times with HBSS-HEPES buffer to remove excess dye leaving 100 μl in each well. Plates were re-equilibrated to 37° C. for a few minutes.
(§5) Cells were excited with an Argon laser at 488 nm, and emission was measured through a 510–570 nm bandwidth emission filter (FLIPR™, Molecular Devices, Sunnyvale, Calif.). Drug solution was added in a 50 μl volume to each well to give the desired final concentration. The peak increase in fluorescence intensity was recorded for each well. On each plate, four wells each served as negative (HBSS-HEPES buffer) and positive controls (standard agonists: BW245C (hDP); PGE2 (hEP1; hEP2/Gqs5; hEP3A/Gqi5; hEP4/Gqs5); PGF2α (hFP); carbacyclin (hIP); U-46619 (hTP), depending on receptor). The peak fluorescence change in each drug-containing well was then expressed relative to the controls.
(§6) Compounds were tested in a high-throughput (HTS) or concentration-response (CoRe) format. In the HTS format, forty-four compounds per plate were examined in duplicates at a concentration of 10^−5 M. To generate concentration-response curves, four compounds per plate were tested in duplicates in a concentration range between 10^−5 and 10^−11 M. The duplicate values were averaged. In either, HTS or CoRe format each compound was tested on at least 3 separate plates using cells from different passages to give an n≧3.

Assay [3] addresses T3, HEP2 (Homo sapiens, UniProt P43116).
T3 construct: expressed in transfected cells; membrane fraction
Nature of the assay: Radioligand binding, EP2 receptor. The conditions noted are these: competition vs [3H]PGE2 5 nM, HEK-293 cell membranes. As to the method:
as §1, §2
[^3H-] PGE2 (5 nM; specific activity 180 Ci mmol) was used as the radioligand for EP receptors. […] Non-specific binding determined with 10^−5M of unlabeled PGE2.

For assay [4], the target named is T4, hTP (Homo sapiens, UniProt P21731).
T4 construct: expressed in transfected cells
T4 sequence (P21731 1-343): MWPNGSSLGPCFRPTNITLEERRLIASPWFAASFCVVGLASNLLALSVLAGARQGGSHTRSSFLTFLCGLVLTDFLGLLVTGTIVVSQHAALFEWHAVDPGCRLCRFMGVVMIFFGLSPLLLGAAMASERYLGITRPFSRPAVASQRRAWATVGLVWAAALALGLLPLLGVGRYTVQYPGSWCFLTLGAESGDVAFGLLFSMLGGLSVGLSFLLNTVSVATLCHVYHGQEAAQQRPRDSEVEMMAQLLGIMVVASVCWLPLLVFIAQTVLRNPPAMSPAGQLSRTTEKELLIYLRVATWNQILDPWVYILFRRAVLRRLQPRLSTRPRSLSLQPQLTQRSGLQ
Nature of the assay: FLIPR calcium signal, hTP. Type of assay: cell-based. The settings on record: HEK-293(EBNA) cells, read-out: Functional EC50 (nM) HTP. As to the method: as §3, §4, §5, §6

The target of assay [5] is T5, hEP1 (Homo sapiens, UniProt P34995).
T5 construct: expressed in transfected cells
T5 sequence (P34995 1-402): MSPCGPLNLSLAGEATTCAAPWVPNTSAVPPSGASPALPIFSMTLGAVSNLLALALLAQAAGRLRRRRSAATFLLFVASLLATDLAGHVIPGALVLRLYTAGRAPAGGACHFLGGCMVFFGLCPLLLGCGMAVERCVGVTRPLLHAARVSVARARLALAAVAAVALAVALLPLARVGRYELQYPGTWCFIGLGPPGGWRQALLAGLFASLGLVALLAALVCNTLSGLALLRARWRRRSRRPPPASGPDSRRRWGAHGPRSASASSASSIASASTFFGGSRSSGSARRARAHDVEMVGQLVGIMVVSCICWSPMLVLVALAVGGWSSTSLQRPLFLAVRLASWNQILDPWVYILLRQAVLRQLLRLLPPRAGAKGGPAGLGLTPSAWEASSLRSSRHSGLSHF
As to the kind of experiment: FLIPR calcium signal, hEP1. The format is cell-based. The conditions noted are these: HEK-293(EBNA) cells, read-out: Functional EC50 (nM) HEP1. As for the experimental part: as §3, §4, §5, §6

For assay [6], the target named is T6, hEP3A/Gqi5 (Homo sapiens, UniProt P43115).
T6 construct: expressed in transfected cells
T6 sequence (P43115 1-390): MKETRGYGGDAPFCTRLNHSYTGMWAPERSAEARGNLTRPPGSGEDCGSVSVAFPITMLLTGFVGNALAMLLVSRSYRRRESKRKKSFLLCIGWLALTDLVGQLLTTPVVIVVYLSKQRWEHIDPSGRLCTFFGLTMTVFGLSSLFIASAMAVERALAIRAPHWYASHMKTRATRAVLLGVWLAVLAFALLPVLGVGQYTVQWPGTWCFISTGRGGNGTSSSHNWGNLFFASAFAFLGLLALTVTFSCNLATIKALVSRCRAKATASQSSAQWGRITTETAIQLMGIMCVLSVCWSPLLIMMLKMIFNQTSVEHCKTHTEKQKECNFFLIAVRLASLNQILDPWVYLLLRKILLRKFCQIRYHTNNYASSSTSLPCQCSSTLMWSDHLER
Nature of the assay: FLIPR calcium signal, hEP3A/Gqi5. The format is cell-based. The settings on record: HEK-293(EBNA) cells, read-out: Functional EC50 (nM) HEP3A. As for the experimental part: as §3, §4, §5, §6

In assay [7] the target is T7, hEP2/Gqs5 (Homo sapiens, UniProt P43116).
T7 construct: expressed in transfected cells
Nature of the assay: FLIPR calcium signal, hEP2/Gqs5. The format is cell-based. The settings on record: HEK-293(EBNA) cells, read-out: Functional EC50 (nM) HEP2. As for the experimental part: as §3, §4, §5
Compounds were tested in a high-throughput (HTS) or concentration-response (CoRe) format. […]

T1 sequence (P35408 whole entry): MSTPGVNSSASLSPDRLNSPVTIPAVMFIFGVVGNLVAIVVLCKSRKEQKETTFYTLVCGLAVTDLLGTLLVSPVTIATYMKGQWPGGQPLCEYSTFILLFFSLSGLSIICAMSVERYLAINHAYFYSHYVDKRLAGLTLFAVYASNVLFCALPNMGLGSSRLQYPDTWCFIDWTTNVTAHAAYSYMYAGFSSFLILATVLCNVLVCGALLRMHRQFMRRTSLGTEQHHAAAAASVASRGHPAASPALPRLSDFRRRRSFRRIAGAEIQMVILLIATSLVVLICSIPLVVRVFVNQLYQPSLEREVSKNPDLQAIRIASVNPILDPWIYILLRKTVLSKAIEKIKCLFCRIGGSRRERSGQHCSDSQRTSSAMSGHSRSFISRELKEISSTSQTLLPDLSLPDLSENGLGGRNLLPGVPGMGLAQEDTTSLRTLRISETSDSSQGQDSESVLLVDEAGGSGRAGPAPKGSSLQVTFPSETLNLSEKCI
T2 sequence (P35408 whole entry): as above
T7 sequence (P43116 whole entry): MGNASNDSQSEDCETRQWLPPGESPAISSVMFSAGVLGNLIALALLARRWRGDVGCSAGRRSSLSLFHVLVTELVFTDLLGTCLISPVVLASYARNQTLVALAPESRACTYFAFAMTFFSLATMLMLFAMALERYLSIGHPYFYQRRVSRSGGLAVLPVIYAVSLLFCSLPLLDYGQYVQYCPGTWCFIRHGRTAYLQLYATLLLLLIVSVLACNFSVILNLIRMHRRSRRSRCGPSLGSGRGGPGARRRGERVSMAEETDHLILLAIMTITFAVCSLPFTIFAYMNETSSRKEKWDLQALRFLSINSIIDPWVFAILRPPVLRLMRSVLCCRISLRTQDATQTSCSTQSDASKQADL
T3 sequence (P43116 whole entry): as above

Take `C=C[C@@H]1CC(=O)[C@H](C/C=C\CCCC(=O)O)[C@H]1/C=C/C(O)CCc1sc2ccccc2c1Cl` (stereo partly drawn): the IC50 (commonly the point on the concentration scale where inhibition reaches its midpoint) in assay [1] is 650 nM; in assay [3] it was over 10000 nM. Moreover, the EC50 – broadly, the concentration that produces a half-maximal response – in assay [2] came to 156 nM.
Consider `O=C(O)CCC/C=C\C[C@H]1C(=O)C[C@@H](CO)[C@@H]1/C=C/C(O)Cc1cc2ccccc2s1` (single isomer, unassigned) [drawing 36], for which the EC50 in assay [4], in assay [5], in assay [6], in assay [7] and in assay [2] was over 10000 nM each time.
`O=C(O)CCC/C=C\C[C@H]1C(=O)C[C@@H](CO)[C@@H]1/C=C/C(O)CCc1sc2ccccc2c1Cl` (stereo partly drawn) [drawing 33]: the EC50 in assay [2] stood at 1790 nM.
With `CC[C@@H]1CC(=O)[C@H](C/C=C\CCCC(=O)OC)[C@H]1/C=C/C(O)CCc1sc2ccccc2c1Cl` (stereo partly drawn), the IC50 in assay [1] is over 10000 nM.
Regarding `COC(=O)CCC/C=C\C[C@H]1C(=O)C[C@@H](CO)[C@@H]1/C=C/C(O)Cc1cc2ccccc2s1` (stereo partly drawn) [drawing 35], the EC50 is over 10000 nM in assay [4]; over 10000 nM in assay [5]; 9000 nM in assay [6]; over 10000 nM in assay [7]; over 10000 nM in assay [2].
In assay [1], `CC(C)[C@@H]1CC(=O)[C@H](C/C=C\CCCC(=O)O)[C@H]1/C=C/C(O)CCc1sc2ccccc2c1Cl` (stereo partly drawn) registered an IC50 of over 10000 nM. For the same compound, the EC50 in assay [2] was over 10000 nM.
`COC(=O)CCC/C=C\C[C@H]1C(=O)CC[C@@H]1/C=C/C(O)CCc1sc2ccccc2c1Cl` (stereo partly drawn) [drawing 39]: the values for the EC50 in assay [4] and in assay [2] were over 10000 nM and 862 nM, respectively.
In assay [1], `CC[C@@H]1CC(=O)[C@H](C/C=C\CCCC(=O)O)[C@H]1/C=C/C(O)CCc1sc2ccccc2c1Cl` (stereo partly drawn) returned an IC50 of 2100 nM. Also, in assay [2], the half-maximal effective concentration (EC50) turned out to be 708 nM.
Consider `COC(=O)CCC/C=C\C[C@H]1C(=O)C[C@@H](C(C)C)[C@@H]1/C=C/C(O)CCc1sc2ccccc2c1Cl` (stereo partly drawn), for which the IC50 in assay [1] was over 10000 nM.
Consider `C=C[C@@H]1CC(=O)[C@H](C/C=C\CCCC(=O)OC)[C@H]1/C=C/C(O)CCc1sc2ccccc2c1Cl` (stereo partly drawn), for which the IC50 in assay [1] was over 10000 nM. In addition, the EC50 in assay [2] was determined as 1700 nM.

The values above are taken from US7101906B2, “2,3,4-substituted cyclopentanones as therapeutic agents” (Allergan, Inc., priority 2004, dated 2006).
